Test results from ChEMBL document CHEMBL1909046, “DrugMatrix in vitro pharmacology data”.

Experiments:
[1] = molecular target: C-C chemokine receptor type 2 (Homo sapiens, UniProt P41597); type: cell membranes, Membrane; settings: cho-k1; also: in other assays of this panel Not Active means under 50% inhibition at 10 µM
[2] = DRUGMATRIX: Glutamate, NMDA, Agonism radioligand binding (ligand: [3H] CGP-39653); type: cell membranes, Rattus norvegicus, Wistar, Cerebral cortex, Membrane; settings: Not Active = under 50% inhibition at 10 µM
[3] = molecular target: Platelet-activating factor receptor (Homo sapiens, UniProt P25105); type: tissue-based; also: in other assays of this panel Not Active means under 50% inhibition at 10 µM
Platelet-activating factor receptor, sequence (P25105 whole entry): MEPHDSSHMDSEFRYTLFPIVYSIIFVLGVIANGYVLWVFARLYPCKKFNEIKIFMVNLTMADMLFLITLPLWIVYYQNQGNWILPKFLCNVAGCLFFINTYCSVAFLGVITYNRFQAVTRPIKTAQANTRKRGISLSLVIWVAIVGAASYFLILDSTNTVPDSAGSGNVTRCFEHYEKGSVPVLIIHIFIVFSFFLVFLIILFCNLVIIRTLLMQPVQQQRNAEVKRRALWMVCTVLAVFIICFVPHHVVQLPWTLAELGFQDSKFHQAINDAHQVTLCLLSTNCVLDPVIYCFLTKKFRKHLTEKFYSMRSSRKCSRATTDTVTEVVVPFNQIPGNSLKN

[4] = molecular target: T1, Neutrophil elastase (Homo sapiens, UniProt P08246); type: tissue-based;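 also: inhibition of neutrophil elastase enzyme activity, measured with a p-nitroanilide-linked peptide substrate; in other assays of this panel Not Active means under 50% inhibition at 10 µM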
T1 sequence (P08246 whole entry): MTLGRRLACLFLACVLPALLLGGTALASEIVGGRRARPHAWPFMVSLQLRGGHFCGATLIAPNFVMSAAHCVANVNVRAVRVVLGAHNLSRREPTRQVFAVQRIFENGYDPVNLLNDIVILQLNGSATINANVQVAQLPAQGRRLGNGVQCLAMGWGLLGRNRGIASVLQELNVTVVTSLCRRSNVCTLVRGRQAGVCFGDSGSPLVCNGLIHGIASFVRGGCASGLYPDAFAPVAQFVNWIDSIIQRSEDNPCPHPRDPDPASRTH

C-C chemokine receptor type 2, sequence (P41597 whole entry): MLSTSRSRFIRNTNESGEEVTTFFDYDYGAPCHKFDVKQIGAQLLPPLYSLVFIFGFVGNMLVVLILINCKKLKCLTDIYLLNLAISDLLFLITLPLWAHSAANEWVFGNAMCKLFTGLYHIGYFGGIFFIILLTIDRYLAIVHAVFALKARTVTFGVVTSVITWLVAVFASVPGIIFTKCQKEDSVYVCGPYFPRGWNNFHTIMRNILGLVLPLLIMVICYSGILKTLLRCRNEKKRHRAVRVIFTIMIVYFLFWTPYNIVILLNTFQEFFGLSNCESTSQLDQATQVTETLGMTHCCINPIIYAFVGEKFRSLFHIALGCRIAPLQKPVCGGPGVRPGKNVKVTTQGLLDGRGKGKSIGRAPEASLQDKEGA

COc1ccccc1N
Not Active: IC50 [1] | IC50 [2] | Ki [2] | IC50 [3] | IC50 [4]

C[C@H]1O[C@H](O[C@H]2[C@H](O)[C@@H](O)[C@@H](O[C@H]3[C@H](O)[C@@H](O)C(O)O[C@@H]3CO)O[C@@H]2CO)[C@H](O)[C@@H](O)[C@@H]1N[C@H]1C=C(CO)[C@@H](O)[C@H](O)[C@H]1O (stereo partly drawn) [ACARBOSE]
Not Active: IC50 [1] | IC50 [2] | Ki [2] | IC50 [3] | IC50 [4]

NC12CC3CC(CC(C3)C1)C2 [AMANTADINE]
Not Active: IC50 [1] | IC50 [2] | Ki [2] | IC50 [3] | IC50 [4]

NCCCNCCSP(=O)(O)O [AMIFOSTINE]
Not Active: IC50 [1] | IC50 [2] | Ki [2] | IC50 [3] | IC50 [4]

CN(C)CCC=C1c2ccccc2CCc2ccccc21 [AMITRIPTYLINE]
Not Active: IC50 [1] | IC50 [2] | Ki [2] | IC50 [3] | IC50 [4]

CC(C)c1c(C(=O)Nc2ccccc2)c(-c2ccccc2)c(-c2ccc(F)cc2)n1CC[C@@H](O)C[C@@H](O)CC(=O)O [ATORVASTATIN]
Not Active: IC50 [1] | IC50 [2] | Ki [2] | IC50 [3] | IC50 [4]

C[C@H]1[C@H](NC(=O)/C(=N\OC(C)(C)C(=O)O)c2csc(N)n2)C(=O)N1S(=O)(=O)O [AZTREONAM]
Not Active: IC50 [1] | IC50 [2] | Ki [2] | IC50 [3] | IC50 [4]

O=C(O)CCNC(=O)c1ccc(/N=N/c2ccc(O)c(C(=O)O)c2)cc1 [BALSALAZIDE]
Not Active: IC50 [1] | IC50 [2] | Ki [2] | IC50 [3] | IC50 [4]

Cn1c(=O)c2c(ncn2C)n(C)c1=O [CAFFEINE]
Not Active: IC50 [1] | IC50 [2] | Ki [2] | IC50 [3] | IC50 [4]

CO/N=C(\C(=O)N[C@@H]1C(=O)N2C(C(=O)O)=C(COC(C)=O)CS[C@H]12)c1csc(N)n1 [CEFOTAXIME]
Not Active: IC50 [1] | IC50 [2] | Ki [2] | IC50 [3] | IC50 [4]

Cc1cc(O)cc(C)c1Cl [CHLOROXYLENOL]
Not Active: IC50 [1] | IC50 [2] | Ki [2] | IC50 [3] | IC50 [4]

CCCNC(=O)NS(=O)(=O)c1ccc(Cl)cc1 [CHLORPROPAMIDE]
Not Active: IC50 [1] | IC50 [2] | Ki [2] | IC50 [3] | IC50 [4]

NS(=O)(=O)c1cc(C2(O)NC(=O)c3ccccc32)ccc1Cl (stereo not drawn) [CHLORTHALIDONE]
Not Active: IC50 [1] | IC50 [2] | Ki [2] | IC50 [3] | IC50 [4]

O=C(O)CC(O)(CC(=O)O)C(=O)O [CITRIC ACID]
Not Active: IC50 [1] | IC50 [2] | Ki [2] | IC50 [3] | IC50 [4]

CN1C[C@@H]2C[C@H]1CN2c1cc2c(cc1F)c(=O)c(C(=O)O)cn2C1CC1 [DANOFLOXACIN]
Not Active: IC50 [1] | IC50 [2] | Ki [2] | IC50 [3] | IC50 [4]

COc1cccc2c1C(=O)c1c(O)c3c(c(O)c1C2=O)C[C@@](O)(C(C)=O)C[C@@H]3O[C@H]1C[C@H](N)[C@H](O)[C@H](C)O1 [DAUNORUBICIN]
Not Active: IC50 [1] | IC50 [2] | Ki [2] | IC50 [3] | IC50 [4]

O=C(O)c1cc(-c2ccc(F)cc2F)ccc1O [DIFLUNISAL]
Not Active: IC50 [1] | IC50 [2] | Ki [2] | IC50 [3] | IC50 [4]

C[S+](C)[O-] [DIMETHYL SULFOXIDE]
Not Active: IC50 [1] | IC50 [2] | Ki [2] | IC50 [3] | IC50 [4]

CC1=NN(c2ccccc2)C(=O)C1 [EDARAVONE]
Not Active: IC50 [1] | IC50 [2] | Ki [2] | IC50 [3] | IC50 [4]

CC(O)(P(=O)(O)O)P(=O)(O)O [ETIDRONIC ACID]
Not Active: IC50 [1] | IC50 [2] | Ki [2] | IC50 [3] | IC50 [4]

CC(C)(C(=O)O)c1ccc(C(O)CCCN2CCC(C(O)(c3ccccc3)c3ccccc3)CC2)cc1 (stereo not drawn) [FEXOFENADINE]
Not Active: IC50 [1] | IC50 [2] | Ki [2] | IC50 [3] | IC50 [4]

CN1CCN(c2c(F)cc3c(=O)c(C(=O)O)cn(CCF)c3c2F)CC1 [FLEROXACIN]
Not Active: IC50 [1] | IC50 [2] | Ki [2] | IC50 [3] | IC50 [4]

O=c1[nH]c(=O)n([C@H]2C[C@H](O)[C@@H](CO)O2)cc1F [FLOXURIDINE]
Not Active: IC50 [1] | IC50 [2] | Ki [2] | IC50 [3] | IC50 [4]

O=C(O)P(=O)(O)O [FOSCARNET]
Not Active: IC50 [1] | IC50 [2] | Ki [2] | IC50 [3] | IC50 [4]

CCCCC1=NC2(CCCC2)C(=O)N1Cc1ccc(-c2ccccc2-c2nnn[nH]2)cc1 [IRBESARTAN]
Not Active: IC50 [1] | IC50 [2] | Ki [2] | IC50 [3] | IC50 [4]

CN1CCC(=C2c3ccccc3CC(=O)c3sccc32)CC1 [KETOTIFEN]
Not Active: IC50 [1] | IC50 [2] | Ki [2] | IC50 [3] | IC50 [4]

C[N+](C)(C)C[C@H](O)CC(=O)[O-] [LEVOCARNITINE]
Not Active: IC50 [1] | IC50 [2] | Ki [2] | IC50 [3] | IC50 [4]

C[C@H]1COc2c(N3CCN(C)CC3)c(F)cc3c(=O)c(C(=O)O)cn1c23.C[C@H]1COc2c(N3CCN(C)CC3)c(F)cc3c(=O)c(C(=O)O)cn1c23.O [LEVOFLOXACIN]
Not Active: IC50 [1] | IC50 [2] | Ki [2] | IC50 [3] | IC50 [4]

CCn1cc(C(=O)O)c(=O)c2cc(F)c(N3CCNC(C)C3)c(F)c21 (stereo not drawn) [LOMEFLOXACIN]
Not Active: IC50 [1] | IC50 [2] | Ki [2] | IC50 [3] | IC50 [4]

CN1CCCC(CN2c3ccccc3Sc3ccccc32)C1 (stereo not drawn) [MEPAZINE]
Not Active: IC50 [1] | IC50 [3] | IC50 [4]

Cc1cccc(C)c1NC(=O)C1CCCCN1C (stereo not drawn) [MEPIVACAINE]
Not Active: IC50 [1] | IC50 [2] | Ki [2] | IC50 [3] | IC50 [4]

CN(C)C(=N)NC(=N)N [METFORMIN]
Not Active: IC50 [1] | IC50 [2] | Ki [2] | IC50 [3] | IC50 [4]

CC(C)(C)NCC(O)COc1cccc2c1CC(O)C(O)C2 (stereo not drawn) [NADOLOL]
Not Active: IC50 [1] | IC50 [2] | Ki [2] | IC50 [3] | IC50 [4]

C[C@]12CC[C@H]3[C@@H](CCC4=CC(=O)CC[C@@H]43)[C@@H]1CC[C@@H]2O [NANDROLONE]
Not Active: IC50 [1] | IC50 [2] | Ki [2] | IC50 [3] | IC50 [4]

C[C@@H]1C/C=C/C=C/C=C/C=C/[C@H](O[C@@H]2O[C@H](C)[C@@H](O)[C@H](N)[C@@H]2O)C[C@@H]2O[C@](O)(C[C@@H](O)C[C@H]3O[C@@H]3/C=C/C(=O)O1)C[C@H](O)[C@H]2C(=O)O [NATAMYCIN]
Not Active: IC50 [1] | IC50 [2] | Ki [2] | IC50 [3] | IC50 [4]

CN(C)C(=O)Oc1cccc([N+](C)(C)C)c1.[Br-] [NEOSTIGMINE BROMIDE]
Not Active: IC50 [1] | IC50 [2] | Ki [2] | IC50 [3] | IC50 [4]

NC(=O)c1cccnc1 [NIACINAMIDE]
Not Active: IC50 [1] | IC50 [2] | Ki [2] | IC50 [3] | IC50 [4]

CS(=O)(=O)Nc1ccc([N+](=O)[O-])cc1Oc1ccccc1 [NIMESULIDE]
Not Active: IC50 [1] | IC50 [2] | Ki [2] | IC50 [3] | IC50 [4]

NC(=O)N1c2ccccc2CC(=O)c2ccccc21 [OXCARBAZEPINE]
Not Active: IC50 [1] | IC50 [2] | Ki [2] | IC50 [3] | IC50 [4]

COc1ccnc(C[S+]([O-])c2nc3ccc(OC(F)F)cc3[nH]2)c1OC (stereo not drawn) [PANTOPRAZOLE]
Not Active: IC50 [1] | IC50 [2] | Ki [2] | IC50 [3] | IC50 [4]

N=C(N)c1ccc(OCCCCCOc2ccc(C(=N)N)cc2)cc1 [PENTAMIDINE]
Not Active: IC50 [1] | IC50 [2] | Ki [2] | IC50 [3] | IC50 [4]

CCc1ccc(CCOc2ccc(CC3SC(=O)NC3=O)cc2)nc1 (stereo not drawn) [PIOGLITAZONE]
Not Active: IC50 [1] | IC50 [2] | Ki [2] | IC50 [3] | IC50 [4]

CCCNC(C)C(=O)Nc1ccccc1C (stereo not drawn) [PRILOCAINE]
Not Active: IC50 [1] | IC50 [2] | Ki [2] | IC50 [3] | IC50 [4]

CCN(CC)CCNC(=O)c1ccc(N)cc1 [PROCAINAMIDE]
Not Active: IC50 [1] | IC50 [2] | Ki [2] | IC50 [3] | IC50 [4]

CCN(C(C)=O)c1cccc(-c2ccnc3c(C#N)cnn23)c1 [ZALEPLON]
Not Active: IC50 [1] | IC50 [2] | Ki [2] | IC50 [3] | IC50 [4]
